From paper PMC9321894, “Design and Anticancer Properties of New Water-Soluble Ruthenium–Cyclopentadienyl Complexes” (Pharmaceuticals, 2022)
Marks after values point to notes of the source that are not given here.

Columns and labels:
[1] = Stability in water in presence of air (UV-vis, 1H and 31P NMR); type: physicochemical
Procedure: The stability of all the complexes in water was evaluated by ^31P NMR and UV–visible spectroscopies. Generally, a 5 mm NMR tube was charged in the air with the 10 mg of each complex and D2O (0.8 mL). ^1H NMR and ^31P NMR were monitored for four days to evaluate if there was any decomposition product. Decomposition/instability of the compound can be assessed by the disappearance of the NMR signals and/or by the appearance of new signals that could not be assigned to the known complex, beyond the appearance of free mTPPMS phosphine signals. Any eventual changes in the charge transfer bands between ruthenium and ligands were followed by UV–visible in the 300–900 nm range.

[2] = molecular target: T1, fatty-acid-free human serum albumin (HSA^faf) (Homo sapiens, UniProt P02768); assay: Fluorescence quenching of HSA^faf (Trp214); type: binding; conditions: for KSV: pH 7.4
T1 construct: purchased Sigma-Aldrich A3782
T1 sequence (P02768 25-609): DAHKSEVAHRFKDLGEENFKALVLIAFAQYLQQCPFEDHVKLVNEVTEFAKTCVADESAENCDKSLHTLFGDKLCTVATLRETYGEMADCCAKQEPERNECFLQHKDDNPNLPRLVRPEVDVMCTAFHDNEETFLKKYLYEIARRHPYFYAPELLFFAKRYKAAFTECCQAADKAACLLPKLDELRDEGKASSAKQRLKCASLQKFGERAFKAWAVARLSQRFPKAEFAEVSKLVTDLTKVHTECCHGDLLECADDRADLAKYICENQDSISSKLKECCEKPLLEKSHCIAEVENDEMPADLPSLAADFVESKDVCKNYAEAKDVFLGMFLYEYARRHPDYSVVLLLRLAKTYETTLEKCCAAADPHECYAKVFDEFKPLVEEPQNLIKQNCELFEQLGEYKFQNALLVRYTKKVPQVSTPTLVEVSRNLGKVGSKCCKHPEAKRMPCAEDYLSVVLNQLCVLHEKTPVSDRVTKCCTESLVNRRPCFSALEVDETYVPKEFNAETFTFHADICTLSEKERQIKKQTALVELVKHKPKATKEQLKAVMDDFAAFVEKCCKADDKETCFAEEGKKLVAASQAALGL
Procedure: Human serum albumin (HSA) was dissolved in 10 mM HEPES buffer (pH 7.4). The HSA concentration was determined spectrophotometrically using the absorbance value at 280 nm (ε280 = 36,500 M^−1cm^−1). Complex 6 was dissolved in 10 mM HEPES buffer (pH 7.4). A series of ruthenium-protein batch solutions were prepared by adding different concentrations of ruthenium solutions to the protein solution prepared previously. For fluorescence acquisition, the final HSA concentration was 2.5 μM, and the ruthenium were 0, 0.6, 1.2, 1.8, 2.5, 5, 7.5, 10, 12.5, 15, 17.5, 20, 22.5, 25, 27.5, 30, 32.5, 35, 37.5, 40, 42.5, and 45 μM. […] The reference solutions were prepared following the procedures described above without protein.
Steady-state fluorescence measurements were carried out with a Fluorolog Model-3.22 spectrofluorometer from Horiba Jobin Yvon at 293.15, 298.15, and 310.15 K. All measurements were performed in Hellma® semi-micro fluorescence cuvettes (Suprasil® quartz, path length 10 × 4 mm, chamber volume […]) with the 10 mm path length for the excitation of the sample. The excitation and emission slit widths were fixed at 4.0 nm, and the excitation wavelength was set at 295 nm to selectively excite the tryptophan 214 residue. The emission spectra were recorded from 305 to 550 nm. Solutions of ruthenium complex in 10 mM HEPES buffer pH 7.4 in corresponding concentrations were used as reference for the measured fluorescence spectra of protein-complex mixtures. […] The fluorescence intensities were corrected for the absorption of the exciting light and re-absorption of the emitted light to decrease the inner filter effect using UV–visible absorption data recorded for each sample on a Jasco V-660 spectrophotometer in the range of 260 to 900 nm with 1 cm path quartz cells.
Fluorescence quenching of HSA by complex [Ru(η5-C5H5)(mTPPMS)(bopy)][CF3SO3] (6) […]
F0 = 1 + K τ (Q) = 1 + K (Q) (S1) where F0 and F are the fluorescence intensities of HSA in the absence and presence of the quencher [Ru(η5-C5H5)(mTPPMS)(bopy)][CF3SO3]; [Q] is the quencher concentration; Kq is the bimolecular quenching constant; t0 is the average fluorescence lifetime of HSA in the absence of the quencher, and KSV is the Stern-Volmer quenching constant.
Figure S10. Stern-Volmer plots at pH7.4 for the quenching of (A) HSA and (B) HSA faf by [Ru(η5-C5H5)(mTPPMS)(bopy)][CF3SO3] at three temperatures (◆) 293 K, (●) 298 K, (▲) 310 K.
log(F0 − F) = log K + nlog[Q] ( S2) […]
where Ka is the association constant for a site and n is the number of binding sites by protein.
Figure S11. Double-log plots for the fluorescence quenching for the (A) {HSA-[Ru(η5-C5H5)(mTPPMS)(bopy)][CF3SO3]} and (B) {HSAfaf-[Ru(η5-C5H5)(mTPPMS)(bopy)][CF3SO3]} systems at three temperatures (◆) 293 K, (●) 298 K, (▲) 310 K. […]

[3] = n-Octanol/water partition coefficient, shake-flask method; type: physicochemical; conditions: room temperature
Procedure: The lipophilicity of the complexes was measured by the shake-flask method. Distilled water and n-octanol were mixed vigorously for 24 h at 25 °C, to promote solvent saturation in both phases, before the experiments. […] Aliquots of stock solutions were equilibrated with octanol for 4 h in a mechanical shaker. The phase ratio was 2 mL/2 mL (water/n-octanol). The aqueous and octanol layers were carefully separated (by centrifugation at 5000 rpm for 10 min), and UV–vis absorption spectra of the compounds were registered in both phases. The concentration for each sample was determined using the calibration curve. Triplicate experiments have been performed for each complex and the averages were calculated.

[RuCp(mTPPMSNa)(bopy)][CF3SO3] [Compound 6]
Changes in the UV–vis spectra in aqueous solution ([1]; over 4 days at 37 °C): insignificant | Stability in water, Time (Days) ([1]; water, in presence of air, 25 °C, time without hydrolysis): >4 ^[b] Days | Ka (association constant for a site) ([2]; 293.15 K): (57.293 ± 1.27) × 10^4 L mol^−1 | Kq ([2]; 293.15 K): (28.7 ± 0.49) × 10^12 L mol^−1 s^−1 | n (number of binding sites) ([2]; 293.15 K): 1.048 | ΔG ([2]; 293.15 K): -37.426 kcal/mol | KSV ([2]; 293.15 K): (28.7 ± 0.49) × 10^4 L mol^−1 | Ka (association constant for a site) ([2]; 298.15 K): (66.764 ± 1.29) × 10^4 L mol^−1 | Kq ([2]; 298.15 K): (40.7 ± 0.75) × 10^12 L mol^−1 s^−1 | n (number of binding sites) ([2]; 298.15 K): 1.023 | ΔG ([2]; 298.15 K): -37.899 kcal/mol | KSV ([2]; 298.15 K): (40.7 ± 0.75) × 10^4 L mol^−1 | Ka (association constant for a site) ([2]; 310.15 K): (80.668 ± 1.17) × 10^4 L mol^−1 | Kq ([2]; 310.15 K): (72.6 ± 1.02) × 10^12 L mol^−1 s^−1 | n (number of binding sites) ([2]; 310.15 K): 1.006 | ΔG ([2]; 310.15 K): -39.034 kcal/mol | KSV ([2]; 310.15 K): (72.6 ± 1.02) × 10^4 L mol^−1 | ΔH ([2]; Van't Hoff, 293.15-310.15 K): 40.51 (R^2 = 0.9938) kJ mol^−1 | ΔS ([2]; Van't Hoff, 293.15-310.15 K): 396.16 J mol^−1 K^−1 | Quenching of fluorescence intensity ([2]; highest Ru concentration (45 μM), pH 7.4, incubation at 298 K for 24 h): 97% | Log Po/w [3]: 5.68 ± 0.05
